This is an account of results in patent US20100197614A1, “TREATMENT OF URINARY TRACT INFECTIONS WITH A MIXTURE OF SAPONIN AND AN ANTIBIOTIC” (priority 2007, published 2010).

The subject of experiment [1] is E Coli taken up by human urinary bladder cells (HTB-9). Description: Infection of human bladder cells (HTB-9) with E Coli; surviving intracellular bacteria counted as CFU after gentamicin exposure. The format is cell-based, Escherichia coli. Conditions: HTB-9 infected 1 or 2 hours, then 100.0 μg/ml gentamicin for 2 hours. As for the experimental part: Human bladder cells were cultured and thereafter infected with bacteria. In brief, human urinary bladder cells (HTB-9 from American tissue culture collection) were cultured in culture medium and CO2 incubator at 37° C. until the actual experiment took place. Culturing of human cells is familiar for any skilled person in this field of biology. Next, different concentrations of E Coli were added to the human bladder cells. The bladder cells and the bacteria were allowed to incubate for 1 or 2 hours together before most of the loosely bound and extracellular E Coli cells were removed by washing the bladder cells with PBS (the human bladder cells are attached to the bottom of the cell culture flask). The human bladder cells were exposed to 100.0 μg/ml gentamicin for 2 hours. Gentamicin cannot pass any membrane under normal conditions. As already shown in example 1, this gentamicin treatment kills all bacteria if the gentamicin can get access to the bacteria. Residual gentamicin and dead bacteria were removed again by washing the bladder cells with PBS. A final concentration of 0.1% triton x-100 in phosphate buffered saline was added to destroy all membrane structures of the human cells. […] The degree of expression of bacterial type 1 pili was correlated with the degree of bladder infection as measured by the method explained in example 2. […]

Experiment [2] deals with wild-type E Coli bacteria isolated from UTI patients. Description: Growth (absorption at 600 nm) and CFU survival of E Coli directly exposed to gentamicin in LB. The format is cell-based, Escherichia coli. As for the experimental part:
Furthermore, a sample of each bacteria solution at each different gentamicin concentration was transferred to an agar plate in order to test if the bacteria could give any surviving colony forming units (CFU) on an agar plate. The agar plate incubated overnight at 37° C.
FIG. 3, lower panel, no E Coli bacteria could survive being exposed for 2 hours to concentrations of gentamicin higher than approximately 3.1 μg/ml.
Seven different wild-type E Coli bacteria were isolated from UTI patients and were cultured in Luria Broth (LB) medium under static conditions for 2 days. The method for culturing bacteria is familiar for any skilled person in this field of microbiology. The 2 days old bacteria were diluted 100 fold in fresh sterile LB and added different concentrations of gentamicin or no gentamicin (control). Gentamicin was used as representative antibiotic agent. The bacteria were then allowed to re-grow for 2 hours under optimal growth conditions (shaking and at 37° C.) before the actual concentrations of bacteria cell in the LB were measured by determination of the absorption at 600 nm. The absorption of light reflects the number of bacteria. The number of bacteria was expressed relatively to the control preparation without gentamicin. […] Furthermore, a sample of each bacteria solution at each different gentamicin concentration was transferred to an agar plate in order to test if the bacteria survived and could cause formation of colony forming units (CFU) on an agar plate. The agar plate incubated overnight at 37° C.

gentamicin: the “survival of bacteria taken up by bladder cells after antibiotic treatment (CFU)” value in experiment [1] is “able to survive the antibiotic treatment”. In addition, the “survival of test bacteria on direct exposure” value in experiment [2] (100.0 μg/ml gentamicin, 2 hours) is recorded as “could not survive”. Besides, the “number of bacteria relative to control without gentamicin (absorption at 600 nm)” value in experiment [2] (2 hours re-growth with different concentrations of gentamicin) is listed as “reduced at very low concentrations of gentamicin”. Also, in experiment [2] (exposed for 2 hours, LB, 37° C., agar plate overnight), the “gentamicin concentration above which no E Coli bacteria could survive (CFU on agar plate)” value is recorded as “approximately 3.1 μg/ml”.
